Among the data in patent publication US20170209445A1, “KINASE INHIBITORS” (Respivert Limited, priority 2014, published 2017) are IC50 values, retold here.

The test system of this test is PBMCs. As to the kind of experiment: LPS-induced IL-8 release in PBMC cells. Format: cell-based. The conditions noted are these: Homo sapiens, LPS-stimulated PBMCs, read-out: IC50 Values for Inhibition of Cytokine Release PBMCs IL-8. The protocol: Peripheral blood mononuclear cells (PBMCs) from healthy subjects are separated from whole blood using a density gradient (Lymphoprep, Axis-Shield Healthcare). The PBMCs are seeded in 96 well plates and treated with compounds at the desired concentration for 2 hours before addition of 1 ng/mL LPS (Escherichia Coli 0111:B4 from Sigma Aldrich) for 24 hours under normal tissue culture conditions (37° C., 5% CO2). The supernatant is harvested for determination of IL-8 and TNFα concentrations by sandwich ELISA (Duo-set, R&D systems) and read on the fluorescence microplate reader (Varioskan® Flash, ThermoFisher Scientific).

As usually defined, the IC50 is the midpoint of a concentration-inhibition curve. As for `COc1c(NC(=O)c2ccc(C)c(-c3ccc4nc(Nc5ccc(S(C)(=N)=O)cc5)ncc4c3)c2)cc(C(C)(C)C)cc1NS(C)(=O)=O` (stereo not drawn) [14(t), N-(5-(tert-Butyl)-2-methoxy-3-(methylsulfonamido)phenyl)-4-methyl-3-(2-((4-(S-methylsulfonimidoyl)phenyl)amino)quinazolin-6-yl)benzamide], the IC50 turned out to be 67.6 nM.
Regarding `COc1c(NC(=O)c2ccc(C)c(-c3ccc4nc(Nc5cc(C(=O)NCCN6CCOCC6)cc(C(F)(F)F)c5)ncc4c3)c2)cc(C(C)(C)C)cc1NS(C)(=O)=O` [14(u), N-(5-(tert-Butyl)-2-methoxy-3-(methylsulfonamido)phenyl)-4-methyl-3-(2-((3-((2-morpholinoethyl)carbamoyl)-5-(trifluoromethyl)phenyl)amino)quinazolin-6-yl)benzamide], the IC50 was determined as 20.2 nM.
As for `COc1cc(Nc2ncc3cc(-c4cc(C(=O)Nc5cc(C(C)(C)C)cc(NS(C)(=O)=O)c5OC)ccc4C)ccc3n2)ccc1C(=O)NCCOCCOCCO` [14(v), 4-((6-(5-((5-(tert-Butyl)-2-methoxy-3-(methylsulfonamido)phenyl)carbamoyl)-2-methylphenyl)quinazolin-2-yl)amino)-N-(2-(2-(2-hydroxyethoxy)ethoxy)ethyl)-2-methoxybenzamide], the IC50 is 4.4 nM.
With `COCCOCCNC(=O)c1ccc(Nc2ncc3cc(-c4cc(C(=O)Nc5cc(C(C)(C)C)cc(NS(C)(=O)=O)c5OC)ccc4C)ccc3n2)cc1OC` [14(w), 4-((6-(5-((5-(tert-Butyl)-2-methoxy-3-(methylsulfonamido)phenyl)carbamoyl)-2-methylphenyl)quinazolin-2-yl)amino)-2-methoxy-N-(2-(2-methoxyethoxy)ethyl)benzamide], the IC50 came to 8.4 nM.
Turning to `COc1cc(Nc2ncc3cc(-c4cc(C(=O)Nc5cc(C(C)(C)C)cc(NS(C)(=O)=O)c5OC)ccc4C)ccc3n2)ccc1C(=O)NCC(CO)(CO)CO` [14(x), 4-((6-(5-((5-(tert-Butyl)-2-methoxy-3-(methylsulfonamido)phenyl)carbamoyl)-2-methylphenyl)quinazolin-2-yl)amino)-N-(3-hydroxy-2,2-bis(hydroxymethyl)propyl)-2-methoxybenzamide], the IC50 was 7.7 nM.
For `COc1cc(Nc2ncc3cc(-c4cc(C(=O)Nc5cc(C(C)(C)C)cc(NS(C)(=O)=O)c5OC)ccc4C)ccc3n2)ccc1C(=O)NCCN1CCCOCC1` [14(y), N-(2-(1,4-Oxazepan-4-yl)ethyl)-4-((6-(5-((5-(tert-butyl)-2-methoxy-3-(methylsulfonamido)-phenyl)carbamoyl)-2-methylphenyl)quinazolin-2-yl)amino)-2-methoxybenzamide], the IC50 came out at 4.6 nM.
Under `COc1cc(Nc2ncc3cc(-c4cc(C(=O)Nc5cc(C(C)(C)C)cc(NS(C)(=O)=O)c5OC)ccc4C)ccc3n2)ccc1C(=O)NCCN1CCN(C)CC1` [14(z), 4-((6-(5-((5-(tert-Butyl)-2-methoxy-3-(methylsulfonamido)phenyl)carbamoyl)-2-methyl-phenyl)quinazolin-2-yl)amino)-2-methoxy-N-(2-(4-methylpiperazin-1-yl)ethyl)benzamide] stands 6 nM; under `COc1cc(Nc2ncc3cc(-c4cc(C(=O)Nc5cc(C(C)(C)C)cc(NS(C)(=O)=O)c5OC)ccc4C)ccc3n2)ccc1C(=O)NCCCN1CC[S+]([O-])CC1` [Example 11, 4-((6-(5-((5-(tert-Butyl)-2-methoxy-3-(methylsulfonamido)phenyl)carbamoyl)-2-methylphenyl)-quinazolin-2-yl)amino)-2-methoxy-N-(3-(1-oxidothiomorpholino)propyl)benzamide], 7.6 nM.
For `COc1cc(Nc2ncc3cc(-c4cc(C(=O)Nc5cc(C(C)(C)C)cc(NS(C)(=O)=O)c5OC)ccc4C)ccc3n2)ccc1C(=O)NCCN1CCN(CCO)CC1` [Example 13], the IC50 came out at 6.7 nM.
